Assays:
Format in all cases: biochemical
recombinant human DDAHII = molecular target: T1, recombinant human DDAHII (Homo sapiens, UniProt O95865); test: DDAH assay, [14C]L-NMMA to [14C]citrulline, lysates of E. coli expressing recombinant human DDAHII; details: E. coli lysate, 37° C., 60 min, pH 6.5; for effect of competition on metabolism of [14C] L-NMMA by recombinant DDAHII: molar excess of cold competitor
T1 construct: The entire human DDAHII open reading frame was PCR amplified from oligo dT primed human kidney cDNA; made in house; host or cells: E. coli DH5α, soluble fraction of the lysate, not purified
T1 sequence (O95865 1-285): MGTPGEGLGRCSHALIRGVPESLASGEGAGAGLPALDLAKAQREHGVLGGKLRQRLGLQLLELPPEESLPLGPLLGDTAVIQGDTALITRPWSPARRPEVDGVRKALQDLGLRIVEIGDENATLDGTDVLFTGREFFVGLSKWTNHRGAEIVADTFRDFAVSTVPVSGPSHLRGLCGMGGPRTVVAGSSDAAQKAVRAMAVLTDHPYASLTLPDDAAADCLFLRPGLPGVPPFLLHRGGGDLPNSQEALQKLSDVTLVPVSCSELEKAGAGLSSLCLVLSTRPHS
Excerpt: The entire human DDAHII open reading frame was PCR amplified from oligo dT primed human kidney cDNA using oligos HDDAHII.1 and HDDAHII.2. Oligo HDDAH II.1 is complementary to base pairs 2-15 of the human DDAHII cDNA and contains an EcoRI site in frame with the EcoTI site of pPROX.HTa (Life Technologies). HDDAHI.2 is complementary to base pairs 858-840 of the human DDAHII cDNA and contains an artificial XbaI site. PCR produced a single product of ˜850 bp which was digested with EcoRI and Xbai, ligated into EcoRI and XbaI digested pRPROX.HTa and transformed into compotent E.coli DH5α. A positive clone (pPDDAHII) containing an insert of 858 bp was identified and the insert sequenced on both stands. For expression of recombinant human DDAHII, E.coli were grown in liquid culture at 25 ° C. to an OD600 of 0.5-0.6. Expression was then induced by the addition of IPTG to a final concentration of 1 mM and incubation continued for a further two hours. Following induction, cells were collected by centrifugation, weighed and resuspended in ice cold assay buffer (100 mM Na2HPO4 pH 6.5) at 1 g cells/ml. Cells were disrupted by sonication (6×10 secs, with 10 sec. intervals) and centriguged at 50,000 g to separate soluble material from insoluble cell debris.
Aliquots of E.coli lysates were incubated at 37° C. for 60 min. with […] of 100 mM Na2HPO4 pH 6.5 containing 0.02 μCi [^14C]L-NMMA as described previously (MacAllister et al., 1996, Br. J. Pharmacol. 115, 1001-1004). Following incubation samples were prepared for determination of [^14C] citrulline production by scintillation counting. Reactions were vortexed with 1 ml of 50% (w/v) dowex 50X8-400, centrifuged at 10,000 g for 5 min and then 500 μl of the supernatant was mixed with 5 ml of liquid scintillation fluid and the [^14C] content determined.

[1] = molecular target: T2, P. aeruginosa DDAH (PaDDAH) (Pseudomonas aeruginosa, UniProt Q9I4E3); test: DDAH assay, cell lysates containing recombinant P. aeruginosa DDAH; details: 10 mM
T2 construct: The inserts containing the open reading frames of the bacterial DDAHs were excised from the vector; made in house; host or cells: E. coli DH5α, cell lysate
T2 sequence (Q9I4E3 whole entry): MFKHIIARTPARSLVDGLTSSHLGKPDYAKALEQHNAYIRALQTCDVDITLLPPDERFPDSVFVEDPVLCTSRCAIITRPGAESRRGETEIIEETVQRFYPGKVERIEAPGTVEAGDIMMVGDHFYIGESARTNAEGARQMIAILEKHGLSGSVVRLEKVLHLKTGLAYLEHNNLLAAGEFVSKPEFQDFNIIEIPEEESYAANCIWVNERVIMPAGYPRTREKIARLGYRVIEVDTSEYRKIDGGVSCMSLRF
Protocol: (§1) The effect of 10 mM ADMA and SDMA on recombinant ScDDAH and paDDAH was studied using the assay conditions described in the material and methods section below. Assays were carried out in triplicate on aliquots of cell lysates containing empty vector, scDDAH cDNA or paDDAH cDNA and data was expressed as a mean of the total number of replicates after subtraction of background. The results shown are the mean of three independent experiments.
(§2) Samples were assayed by incubating 100 μl of cells lysates with an equal volume of assay mix (100 mM Na2HPO4 pH 6.5, containing 0.02 μCi [^14C] L-NMMA and 100 μM cold L-NMMA) at 37° C. for 60 min, as previously reported. The samples were then prepared for scintillation counting to measure the production of [^14C] citrulline by adding 400 μl of 50% (w/v) Dowex 50X-400 to the reactions, vortexing and centrifugation at 13000 g for 2 min. The [^14C] content of 100 μl of supernatant in 1 ml scintillation fluid was then determined.
(§3) For expression of the recombinant proteins, a positive clone was picked and grown in liquid media supplemented with 100 μg/ml ampicillin. […]

[2] = test system: S. coelicolor DDAH (ScDDAH); test: DDAH assay, cell lysates containing recombinant S. coelicolor DDAH; details: 10 mM
Protocol: as §1, §2, §3

Compound: NC(=O)NCCC[C@H](N)C(=O)O [citrulline]
- effect of competition on metabolism of [14C] L-NMMA by recombinant DDAHII (recombinant human DDAHII): inhibited

Compound: CN(C)C(N)=NCCC[C@H](N)C(=O)O [ADMA, N^GN′^G dimethyl-L-arginine]
- relative effect on the metabolism of L-NMMA ([1]; ADMA compared with SDMA, PaDDAH): greater effect than SDMA
- competition with L-NMMA as substrate (metabolism of [14C] L-NMMA) ([1]; PaDDAH cell lysate, FIG. 7): compete with L-NMMA as substrates
- effect of competition on metabolism of [14C] L-NMMA by recombinant DDAHII (recombinant human DDAHII): inhibited
- relative effect on the metabolism of L-NMMA ([2]; ADMA compared with SDMA, ScDDAH): greater effect than SDMA
- competition with L-NMMA as substrate (metabolism of [14C] L-NMMA) ([2]; ScDDAH cell lysate, FIG. 7): compete with L-NMMA as substrates

Compound: CNC(=N)NCCC[C@H](N)C(=O)O [L-NMMA, N^G monomethyl-L-arginine]
- effect of competition on metabolism of [14C] L-NMMA by recombinant DDAHII (recombinant human DDAHII): inhibited

Compound: CNC(=N)NCC[C@H](N)C(=O)O [4124W, S-2-amino-4(3-methylguanidino)butanoic acid]
- effect of DDAH inhibitor on metabolism of [14C] L-NMMA by recombinant DDAHII (recombinant human DDAHII): inhibited

Reference: patent publication US20050153315A1, “Dimethylarginine dimethylaminohydrolases” (UNIVERSITY COLLEGE LONDON, priority 1999, published 2005)
